Assay results reported in ChEMBL document CHEMBL1146990, “Antibacterial activity of (-)-deoxypseudophrynaminol versus its racemate and derivatives” (2006).
The source made the active and inactive calls. The calls are words filed in the database; no cut-off is given here.

What was measured:
[1] = system: Staphylococcus aureus; assay: Antibacterial activity against Staphylococcus aureus at 10 ug/ml relative to control; assay type: functional
[2] = system: Staphylococcus aureus; assay: Antibacterial activity against Staphylococcus aureus at 40 ug/ml relative to control; assay type: functional

Question: `CC(C)=CC[C@@]12CCN(C)[C@@H]1Nc1ccccc12` was tested. Which Activity [1] did it give?
Answer: The Activity was 50%.

Question: And the Activity [2]?
Answer: The Activity was 99%.

Question: How did the Activity [2] turn out when `CC(C)=CC[C@@]12CCN(C)[C@@H]1Nc1ccccc12` (racemic) [listing 1 of 2 here] was run?
Answer: The Activity was 85%.

Question: How did the Activity [1] turn out when `CC(C)=CC[C@@]12CCN(C)[C@@H]1Nc1ccccc12` (racemic) [listing 2 of 2 here] was run?
Answer: Its Activity is “inactive”.

Question: What does the source list for `COC(=O)N1CC[C@@]2(CC=C(C)C)c3ccccc3N(CC=C(C)C)[C@@H]12` (racemic)?
Answer: Activity [1]: inactive; Activity [2]: inactive

Question: Which Activity [2] does the source give for `CC(C)=CCN1c2ccccc2[C@]2(CC=C(C)C)CCN(C)[C@H]12` (racemic) [(-)-DEBROMOFLUSTRAMINE B] here?
Answer: The Activity was 30%.
